{"source": "ChEMBL document CHEMBL5212743", "about": "“Selectivity Literature for EUbOPEN Chemogenomics Library wave 3” (2023)", "key": {"[1]": {"molecular_target": "T1, Adenosine receptor A3 (Homo sapiens) (UniProt P0DMS8)", "T1 sequence (whole entry)": "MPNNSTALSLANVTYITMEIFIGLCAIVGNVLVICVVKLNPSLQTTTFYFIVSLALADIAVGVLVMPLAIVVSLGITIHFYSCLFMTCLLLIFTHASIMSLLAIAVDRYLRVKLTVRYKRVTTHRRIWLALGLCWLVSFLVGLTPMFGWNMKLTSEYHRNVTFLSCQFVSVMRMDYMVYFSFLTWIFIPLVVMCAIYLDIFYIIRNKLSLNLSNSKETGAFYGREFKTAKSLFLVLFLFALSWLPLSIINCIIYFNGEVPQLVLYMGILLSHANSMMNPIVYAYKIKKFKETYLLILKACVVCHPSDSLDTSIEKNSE", "assay": "Selectivity interaction (CEREP panel (Eurofins, binding assay)) EUB0000262b ADORA3", "details": "at 10 µM"}, "[2]": {"molecular_target": "T1, Adenosine receptor A3 (Homo sapiens)", "assay": "Selectivity interaction (Enzyme panel (Eurofins-Cerep)) EUB0000262b ADORA3", "details": "at 10 µM"}, "[3]": {"molecular_target": "Peroxisome proliferator-activated receptor gamma (Homo sapiens) (UniProt P37231)", "sequence (P37231 whole entry)": "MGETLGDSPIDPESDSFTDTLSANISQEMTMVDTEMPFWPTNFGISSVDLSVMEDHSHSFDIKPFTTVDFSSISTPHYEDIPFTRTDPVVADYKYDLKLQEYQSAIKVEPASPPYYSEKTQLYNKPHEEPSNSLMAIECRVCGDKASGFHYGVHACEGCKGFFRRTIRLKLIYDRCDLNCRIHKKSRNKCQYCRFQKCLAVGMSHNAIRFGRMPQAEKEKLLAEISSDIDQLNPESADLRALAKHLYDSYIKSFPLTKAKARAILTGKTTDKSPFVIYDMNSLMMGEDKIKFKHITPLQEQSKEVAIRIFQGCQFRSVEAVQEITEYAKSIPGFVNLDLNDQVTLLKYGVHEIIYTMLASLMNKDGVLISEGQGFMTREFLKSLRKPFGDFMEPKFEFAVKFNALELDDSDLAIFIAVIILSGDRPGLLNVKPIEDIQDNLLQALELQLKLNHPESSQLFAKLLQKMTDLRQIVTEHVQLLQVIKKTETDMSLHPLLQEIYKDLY", "assay": "Selectivity interaction (CEREP panel (Eurofins, binding assay)) EUB0000262b PPARG", "details": "at 10 µM"}, "[4]": {"molecular_target": "Peroxisome proliferator-activated receptor gamma (Homo sapiens) (UniProt P37231)", "assay": "Selectivity interaction (Enzyme panel (Eurofins-Cerep)) EUB0000262b PPARG", "details": "at 10 µM"}, "[5]": {"molecular_target": "Cholecystokinin receptor type A (Homo sapiens) (UniProt P32238)", "sequence (P32238 whole entry)": "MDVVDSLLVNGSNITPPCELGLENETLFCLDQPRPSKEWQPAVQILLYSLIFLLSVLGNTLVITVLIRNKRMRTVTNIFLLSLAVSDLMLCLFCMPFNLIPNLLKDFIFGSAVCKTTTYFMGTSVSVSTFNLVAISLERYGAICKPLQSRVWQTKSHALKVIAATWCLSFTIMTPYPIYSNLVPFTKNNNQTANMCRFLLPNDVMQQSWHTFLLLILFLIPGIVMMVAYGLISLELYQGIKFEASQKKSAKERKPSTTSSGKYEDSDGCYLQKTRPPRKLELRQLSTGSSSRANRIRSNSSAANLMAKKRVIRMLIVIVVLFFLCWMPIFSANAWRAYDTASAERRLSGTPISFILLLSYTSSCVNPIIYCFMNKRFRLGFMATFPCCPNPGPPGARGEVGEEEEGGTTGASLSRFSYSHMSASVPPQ", "assay": "Selectivity interaction (CEREP panel (Eurofins, binding assay)) EUB0000262b CCKAR", "details": "at 10 µM"}, "[6]": {"molecular_target": "Cholecystokinin receptor type A (Homo sapiens) (UniProt P32238)", "assay": "Selectivity interaction (Enzyme panel (Eurofins-Cerep)) EUB0000262b CCKAR", "details": "at 10 µM"}, "[7]": {"molecular_target": "T2, Histamine H1 receptor (Homo sapiens, UniProt P35367)", "T2 sequence (P35367 whole entry)": "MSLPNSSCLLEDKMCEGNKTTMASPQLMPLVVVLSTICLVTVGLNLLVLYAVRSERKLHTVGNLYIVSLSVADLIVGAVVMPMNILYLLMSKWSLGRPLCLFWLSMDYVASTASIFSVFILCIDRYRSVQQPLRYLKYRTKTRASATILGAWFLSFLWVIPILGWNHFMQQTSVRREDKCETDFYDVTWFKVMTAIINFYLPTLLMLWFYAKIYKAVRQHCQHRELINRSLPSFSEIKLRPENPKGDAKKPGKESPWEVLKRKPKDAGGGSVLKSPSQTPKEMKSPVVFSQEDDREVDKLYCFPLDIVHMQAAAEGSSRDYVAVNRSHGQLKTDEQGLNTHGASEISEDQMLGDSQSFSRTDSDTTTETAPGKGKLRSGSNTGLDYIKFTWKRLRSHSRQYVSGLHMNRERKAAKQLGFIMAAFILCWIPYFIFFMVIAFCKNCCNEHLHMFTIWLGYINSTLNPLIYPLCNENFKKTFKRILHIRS", "assay": "Selectivity interaction (CEREP panel (Eurofins, binding assay)) EUB0000262b HRH1", "details": "at 10 µM"}, "[8]": {"molecular_target": "T2, Histamine H1 receptor", "assay": "Selectivity interaction (Enzyme panel (Eurofins-Cerep)) EUB0000262b HRH1", "details": "at 10 µM"}, "[9]": {"molecular_target": "Delta-type opioid receptor (Homo sapiens) (UniProt P41143)", "sequence (P41143 whole entry)": "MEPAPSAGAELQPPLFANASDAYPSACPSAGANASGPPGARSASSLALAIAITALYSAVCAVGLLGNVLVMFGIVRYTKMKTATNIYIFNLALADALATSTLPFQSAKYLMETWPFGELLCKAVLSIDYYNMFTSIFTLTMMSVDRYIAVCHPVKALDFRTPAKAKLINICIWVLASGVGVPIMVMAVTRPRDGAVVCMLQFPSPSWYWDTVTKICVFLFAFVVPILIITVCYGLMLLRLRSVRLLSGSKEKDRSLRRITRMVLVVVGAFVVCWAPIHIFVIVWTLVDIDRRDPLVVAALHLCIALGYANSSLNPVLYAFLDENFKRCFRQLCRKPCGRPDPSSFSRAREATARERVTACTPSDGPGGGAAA", "assay": "Selectivity interaction (CEREP panel (Eurofins, binding assay)) EUB0000262b OPRD1", "details": "at 10 µM"}, "[10]": {"molecular_target": "Delta-type opioid receptor (Homo sapiens) (UniProt P41143)", "assay": "Selectivity interaction (Enzyme panel (Eurofins-Cerep)) EUB0000262b OPRD1", "details": "at 10 µM"}, "[11]": {"molecular_target": "MAP/microtubule affinity-regulating kinase 3 (Homo sapiens) (UniProt P27448)", "assay": "Selectivity interaction (KinomeScan (DiscoverX)) EUB0000262b MARK3", "details": "at 1 µM"}, "[12]": {"molecular_target": "T3, Prostaglandin G/H synthase 2 (Homo sapiens) (UniProt P35354)", "T3 sequence (whole entry)": "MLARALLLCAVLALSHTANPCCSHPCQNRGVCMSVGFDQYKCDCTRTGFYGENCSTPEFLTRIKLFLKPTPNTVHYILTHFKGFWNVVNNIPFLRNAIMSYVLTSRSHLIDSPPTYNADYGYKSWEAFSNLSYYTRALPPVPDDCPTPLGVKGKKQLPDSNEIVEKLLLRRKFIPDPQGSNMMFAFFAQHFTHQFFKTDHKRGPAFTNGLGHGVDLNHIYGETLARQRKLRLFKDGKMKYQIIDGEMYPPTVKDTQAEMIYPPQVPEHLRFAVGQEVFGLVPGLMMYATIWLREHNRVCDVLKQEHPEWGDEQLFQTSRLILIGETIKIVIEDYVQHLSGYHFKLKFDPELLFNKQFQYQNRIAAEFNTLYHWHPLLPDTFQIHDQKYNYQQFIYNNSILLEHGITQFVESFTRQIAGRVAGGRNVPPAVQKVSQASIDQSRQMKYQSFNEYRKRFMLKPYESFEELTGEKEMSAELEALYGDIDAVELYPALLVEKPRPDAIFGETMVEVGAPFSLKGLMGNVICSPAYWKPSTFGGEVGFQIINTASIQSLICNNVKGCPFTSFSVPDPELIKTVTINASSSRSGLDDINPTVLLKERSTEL", "assay": "Selectivity interaction (CEREP panel (Eurofins, binding assay)) EUB0000262b PTGS2", "details": "at 10 µM"}, "[13]": {"molecular_target": "T3, Prostaglandin G/H synthase 2 (Homo sapiens)", "assay": "Selectivity interaction (Enzyme panel (Eurofins-Cerep)) EUB0000262b PTGS2", "details": "at 10 µM"}, "[14]": {"molecular_target": "T4, Aurora kinase C (Homo sapiens) (UniProt Q9UQB9)", "T4 sequence (whole entry)": "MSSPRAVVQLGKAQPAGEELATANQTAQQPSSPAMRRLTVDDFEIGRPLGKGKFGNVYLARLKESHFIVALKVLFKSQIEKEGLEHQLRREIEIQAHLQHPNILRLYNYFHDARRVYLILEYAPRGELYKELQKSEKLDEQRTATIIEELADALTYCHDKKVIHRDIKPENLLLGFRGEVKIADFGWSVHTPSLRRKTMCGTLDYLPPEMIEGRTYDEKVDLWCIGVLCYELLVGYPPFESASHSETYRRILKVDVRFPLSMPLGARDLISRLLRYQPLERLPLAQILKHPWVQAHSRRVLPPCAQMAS", "assay": "Selectivity interaction (KinomeScan (DiscoverX)) EUB0000262b AURKC", "details": "at 1 µM"}, "[15]": {"molecular_target": "Urotensin-2 receptor (Homo sapiens) (UniProt Q9UKP6)", "sequence (Q9UKP6 whole entry)": "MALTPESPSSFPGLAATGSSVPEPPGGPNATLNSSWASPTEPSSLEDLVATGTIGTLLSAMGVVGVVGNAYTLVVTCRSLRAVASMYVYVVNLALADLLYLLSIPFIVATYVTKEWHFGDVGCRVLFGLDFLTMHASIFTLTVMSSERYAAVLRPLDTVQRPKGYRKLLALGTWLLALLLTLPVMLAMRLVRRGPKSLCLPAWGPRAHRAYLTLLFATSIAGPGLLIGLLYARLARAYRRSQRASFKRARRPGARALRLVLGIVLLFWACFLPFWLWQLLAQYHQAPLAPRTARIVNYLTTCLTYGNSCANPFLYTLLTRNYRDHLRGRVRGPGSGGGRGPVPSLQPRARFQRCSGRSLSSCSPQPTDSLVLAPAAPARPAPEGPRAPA", "assay": "Selectivity interaction (CEREP panel (Eurofins, binding assay)) EUB0000262b UTS2R", "details": "at 10 µM"}, "[16]": {"molecular_target": "Urotensin-2 receptor (Homo sapiens) (UniProt Q9UKP6)", "assay": "Selectivity interaction (Enzyme panel (Eurofins-Cerep)) EUB0000262b UTS2R", "details": "at 10 µM"}, "[17]": {"molecular_target": "T5, Gamma-aminobutyric acid receptor subunit alpha-1 (Homo sapiens, UniProt P14867)", "T5 sequence (P14867 whole entry)": "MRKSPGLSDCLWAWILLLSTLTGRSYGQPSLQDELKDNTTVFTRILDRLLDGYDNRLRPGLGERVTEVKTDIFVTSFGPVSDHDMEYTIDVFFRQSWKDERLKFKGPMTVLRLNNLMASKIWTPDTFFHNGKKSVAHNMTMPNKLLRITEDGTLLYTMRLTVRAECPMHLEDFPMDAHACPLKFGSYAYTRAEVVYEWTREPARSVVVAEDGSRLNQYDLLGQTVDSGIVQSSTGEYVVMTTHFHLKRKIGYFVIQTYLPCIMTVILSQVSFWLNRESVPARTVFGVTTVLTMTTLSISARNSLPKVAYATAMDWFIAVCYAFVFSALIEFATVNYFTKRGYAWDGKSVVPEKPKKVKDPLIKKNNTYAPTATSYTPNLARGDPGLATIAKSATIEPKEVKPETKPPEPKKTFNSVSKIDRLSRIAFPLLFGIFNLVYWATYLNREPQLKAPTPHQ", "assay": "Selectivity interaction (GPCR panel (PDSP screen)) EUB0000262b GABRA1"}, "[18]": {"molecular_target": "T6, Amine oxidase [flavin-containing] A (Homo sapiens, UniProt P21397)", "T6 sequence (P21397 whole entry)": "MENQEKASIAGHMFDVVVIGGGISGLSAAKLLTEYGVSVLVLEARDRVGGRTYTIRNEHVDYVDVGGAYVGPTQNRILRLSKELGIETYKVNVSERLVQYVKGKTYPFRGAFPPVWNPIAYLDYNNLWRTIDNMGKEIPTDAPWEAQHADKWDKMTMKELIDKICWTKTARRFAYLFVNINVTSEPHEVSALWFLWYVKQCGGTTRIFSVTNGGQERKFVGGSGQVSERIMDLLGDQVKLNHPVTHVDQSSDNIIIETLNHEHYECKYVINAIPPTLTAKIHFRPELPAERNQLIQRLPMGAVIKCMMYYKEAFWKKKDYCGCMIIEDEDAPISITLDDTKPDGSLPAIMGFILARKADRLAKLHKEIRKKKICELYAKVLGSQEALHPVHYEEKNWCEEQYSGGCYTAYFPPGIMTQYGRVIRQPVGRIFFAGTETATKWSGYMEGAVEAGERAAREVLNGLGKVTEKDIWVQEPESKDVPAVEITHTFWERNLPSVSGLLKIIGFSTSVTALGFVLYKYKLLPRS", "assay": "Selectivity interaction (CEREP panel (Eurofins, binding assay)) EUB0000262b MAOA", "details": "at 10 µM"}, "[19]": {"molecular_target": "T6, Amine oxidase [flavin-containing] A", "assay": "Selectivity interaction (Enzyme panel (Eurofins-Cerep)) EUB0000262b MAOA", "details": "at 10 µM"}, "[20]": {"molecular_target": "Melatonin receptor type 1A (Homo sapiens) (UniProt P48039)", "sequence (P48039 whole entry)": "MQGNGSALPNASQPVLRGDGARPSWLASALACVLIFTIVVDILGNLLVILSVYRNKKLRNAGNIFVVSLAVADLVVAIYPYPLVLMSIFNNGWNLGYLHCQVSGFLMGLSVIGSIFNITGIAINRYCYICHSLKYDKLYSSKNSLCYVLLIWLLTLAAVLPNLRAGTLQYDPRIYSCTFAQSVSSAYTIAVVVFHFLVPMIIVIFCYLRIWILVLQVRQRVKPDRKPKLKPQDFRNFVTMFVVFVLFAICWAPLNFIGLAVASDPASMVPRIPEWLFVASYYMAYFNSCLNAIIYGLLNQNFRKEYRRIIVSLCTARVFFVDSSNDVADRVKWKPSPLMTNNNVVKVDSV", "assay": "Selectivity interaction (CEREP panel (Eurofins, radioligand binding assay, enzymes, GPCRS, transporters, and ion channels)) EUB0000308b MTNR1A", "details": "at 10 µM"}, "[21]": {"molecular_target": "Sodium-dependent noradrenaline transporter (Homo sapiens, UniProt P23975)", "sequence (P23975 whole entry)": "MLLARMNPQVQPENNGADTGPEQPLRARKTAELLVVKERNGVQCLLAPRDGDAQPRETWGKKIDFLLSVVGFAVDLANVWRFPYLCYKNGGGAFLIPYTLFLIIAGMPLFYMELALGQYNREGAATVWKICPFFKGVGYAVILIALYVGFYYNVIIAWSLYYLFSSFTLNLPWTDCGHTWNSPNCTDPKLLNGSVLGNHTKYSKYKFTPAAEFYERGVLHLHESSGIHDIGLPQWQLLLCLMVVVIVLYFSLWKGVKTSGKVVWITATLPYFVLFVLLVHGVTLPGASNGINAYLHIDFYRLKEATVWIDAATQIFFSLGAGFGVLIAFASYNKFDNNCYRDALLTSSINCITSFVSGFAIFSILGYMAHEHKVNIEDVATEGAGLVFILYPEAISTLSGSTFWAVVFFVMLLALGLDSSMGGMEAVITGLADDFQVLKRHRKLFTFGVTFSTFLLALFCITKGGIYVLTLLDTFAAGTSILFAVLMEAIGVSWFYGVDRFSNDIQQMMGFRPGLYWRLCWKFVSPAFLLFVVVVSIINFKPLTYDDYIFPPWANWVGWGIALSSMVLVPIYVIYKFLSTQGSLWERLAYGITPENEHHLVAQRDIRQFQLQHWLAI", "assay": "Selectivity interaction (CEREP panel (Eurofins, radioligand binding assay, enzymes, GPCRS, transporters, and ion channels)) EUB0000308b SLC6A2", "details": "at 10 µM"}, "[22]": {"molecular_target": "Sodium-dependent dopamine transporter (Homo sapiens, UniProt Q01959)", "sequence (Q01959 whole entry)": "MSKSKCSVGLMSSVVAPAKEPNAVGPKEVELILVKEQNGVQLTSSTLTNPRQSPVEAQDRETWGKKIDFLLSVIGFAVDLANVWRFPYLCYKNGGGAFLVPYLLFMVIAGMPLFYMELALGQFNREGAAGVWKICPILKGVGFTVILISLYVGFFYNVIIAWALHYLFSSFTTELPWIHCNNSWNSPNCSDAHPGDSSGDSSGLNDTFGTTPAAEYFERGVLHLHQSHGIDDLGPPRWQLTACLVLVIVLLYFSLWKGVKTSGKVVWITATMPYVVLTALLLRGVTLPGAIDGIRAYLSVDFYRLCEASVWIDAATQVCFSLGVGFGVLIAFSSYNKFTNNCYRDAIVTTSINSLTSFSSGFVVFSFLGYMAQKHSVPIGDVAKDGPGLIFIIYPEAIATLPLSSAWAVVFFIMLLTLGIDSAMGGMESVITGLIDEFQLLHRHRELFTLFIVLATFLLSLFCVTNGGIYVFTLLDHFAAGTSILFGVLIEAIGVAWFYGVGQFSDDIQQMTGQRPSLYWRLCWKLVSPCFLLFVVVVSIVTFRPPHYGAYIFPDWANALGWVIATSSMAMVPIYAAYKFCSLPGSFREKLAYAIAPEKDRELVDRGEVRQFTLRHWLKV", "assay": "Selectivity interaction (CEREP panel (Eurofins, radioligand binding assay, enzymes, GPCRS, transporters, and ion channels)) EUB0000308b SLC6A3", "details": "at 10 µM"}, "[23]": {"molecular_target": "Sigma non-opioid intracellular receptor 1 (Homo sapiens, UniProt Q99720)", "sequence (Q99720 whole entry)": "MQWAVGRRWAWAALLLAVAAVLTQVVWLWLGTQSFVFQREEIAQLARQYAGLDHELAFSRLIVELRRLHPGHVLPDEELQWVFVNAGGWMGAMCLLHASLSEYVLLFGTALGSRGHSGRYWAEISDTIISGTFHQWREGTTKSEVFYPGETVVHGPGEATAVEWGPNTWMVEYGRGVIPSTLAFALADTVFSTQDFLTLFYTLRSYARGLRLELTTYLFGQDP", "assay": "Selectivity interaction (GPCR panel (PDSP screen)) EUB0000308b SIGMAR1"}, "[24]": {"molecular_target": "T7, Serine/threonine-protein kinase ULK2 (Homo sapiens) (UniProt Q8IYT8)", "T7 sequence (whole entry)": "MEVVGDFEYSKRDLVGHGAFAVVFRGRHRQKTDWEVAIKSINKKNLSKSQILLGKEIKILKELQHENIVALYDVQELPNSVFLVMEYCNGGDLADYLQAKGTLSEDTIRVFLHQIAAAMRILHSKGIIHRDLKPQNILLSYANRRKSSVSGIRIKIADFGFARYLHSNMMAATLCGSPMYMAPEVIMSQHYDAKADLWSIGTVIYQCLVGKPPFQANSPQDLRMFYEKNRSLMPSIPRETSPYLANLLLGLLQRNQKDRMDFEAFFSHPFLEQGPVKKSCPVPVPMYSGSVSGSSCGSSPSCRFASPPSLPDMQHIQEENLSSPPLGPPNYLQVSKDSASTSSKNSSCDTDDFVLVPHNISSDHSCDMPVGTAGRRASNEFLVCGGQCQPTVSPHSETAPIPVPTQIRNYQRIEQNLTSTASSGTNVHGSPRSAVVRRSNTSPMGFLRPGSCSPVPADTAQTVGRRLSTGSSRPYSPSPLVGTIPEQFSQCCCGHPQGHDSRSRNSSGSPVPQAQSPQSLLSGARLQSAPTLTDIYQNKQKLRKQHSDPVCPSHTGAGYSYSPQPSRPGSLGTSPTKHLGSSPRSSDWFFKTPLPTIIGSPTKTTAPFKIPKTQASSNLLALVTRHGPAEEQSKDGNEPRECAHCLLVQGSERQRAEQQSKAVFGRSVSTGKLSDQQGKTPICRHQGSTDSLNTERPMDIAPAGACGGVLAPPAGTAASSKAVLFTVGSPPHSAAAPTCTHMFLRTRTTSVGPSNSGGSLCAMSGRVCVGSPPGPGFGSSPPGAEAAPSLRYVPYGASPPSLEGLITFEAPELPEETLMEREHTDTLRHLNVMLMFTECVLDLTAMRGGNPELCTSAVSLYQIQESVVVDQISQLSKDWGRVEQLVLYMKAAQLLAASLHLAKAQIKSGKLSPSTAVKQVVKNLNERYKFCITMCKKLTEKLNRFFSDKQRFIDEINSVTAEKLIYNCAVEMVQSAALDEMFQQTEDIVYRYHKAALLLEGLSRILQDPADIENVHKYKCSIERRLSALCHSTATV", "assay": "Selectivity interaction (KinomeScan (DiscoverX)) EUB0000308b ULK2", "details": "at 1 µM"}}, "data": [{"compound": "CN(C)CC#Cc1ccc(OCCCc2sc(N3CCc4cccc(C(=O)Nc5nc6ccccc6s5)c4C3)nc2C(=O)O)c(F)c1", "note": "[A-1155463]", "values": [{"measurement": "% of inhibition", "setting": "[1]", "result": 71.6, "unit": "%"}, {"measurement": "% of inhibition", "setting": "[2]", "result": 71.6, "unit": "%"}, {"measurement": "% of inhibition", "setting": "[3]", "result": 99.1, "unit": "%"}, {"measurement": "% of inhibition", "setting": "[4]", "result": 99.1, "unit": "%"}, {"measurement": "% of inhibition", "setting": "[5]", "result": 98.9, "unit": "%"}, {"measurement": "% of inhibition", "setting": "[6]", "result": 98.9, "unit": "%"}, {"measurement": "% of inhibition", "setting": "[7]", "result": 69.2, "unit": "%"}, {"measurement": "% of inhibition", "setting": "[8]", "result": 69.2, "unit": "%"}, {"measurement": "% of inhibition", "setting": "[9]", "result": 77.9, "unit": "%"}, {"measurement": "% of inhibition", "setting": "[10]", "result": 77.9, "unit": "%"}, {"measurement": "% of control", "setting": "[11]", "result": 38, "unit": "%"}, {"measurement": "% of inhibition", "setting": "[12]", "result": 62.2, "unit": "%"}, {"measurement": "% of inhibition", "setting": "[13]", "result": 62.2, "unit": "%"}, {"measurement": "% of control", "setting": "[14]", "result": 9, "unit": "%"}, {"measurement": "% of inhibition", "setting": "[15]", "result": 94.9, "unit": "%"}, {"measurement": "% of inhibition", "setting": "[16]", "result": 94.9, "unit": "%"}, {"measurement": "Ki", "setting": "[17]", "result": 794, "unit": "nM"}, {"measurement": "% of inhibition", "setting": "[18]", "result": 74.5, "unit": "%"}, {"measurement": "% of inhibition", "setting": "[19]", "result": 74.5, "unit": "%"}]}, {"compound": "Clc1cccc(-c2nnnn2Cc2cccnc2)c1Cl", "values": [{"measurement": "% of inhibition", "setting": "[20]", "result": 31, "unit": "%"}, {"measurement": "% of inhibition", "setting": "[21]", "result": 32, "unit": "%"}, {"measurement": "% of inhibition", "setting": "[22]", "result": 43, "unit": "%"}, {"measurement": "Ki", "setting": "[23]", "result": 505, "unit": "nM"}, {"measurement": "% of control", "setting": "[24]", "result": 46, "unit": "%"}]}]}
